Assay results: patent publication US20090048258A1, “Amide Compound” (priority 2005, published 2009)

Target: T1, Human DGAT1 (Homo sapiens, UniProt O75907)
T1 construct: my translation of the primer: M-G-DYKDDDD-GDRGSSRRR) (N); made in house; host or cells: Sf9 insect cells (recombinant baculovirus BAC-DGAT1, pFASTBAC1); microsome fraction
T1 sequence (O75907 1-488): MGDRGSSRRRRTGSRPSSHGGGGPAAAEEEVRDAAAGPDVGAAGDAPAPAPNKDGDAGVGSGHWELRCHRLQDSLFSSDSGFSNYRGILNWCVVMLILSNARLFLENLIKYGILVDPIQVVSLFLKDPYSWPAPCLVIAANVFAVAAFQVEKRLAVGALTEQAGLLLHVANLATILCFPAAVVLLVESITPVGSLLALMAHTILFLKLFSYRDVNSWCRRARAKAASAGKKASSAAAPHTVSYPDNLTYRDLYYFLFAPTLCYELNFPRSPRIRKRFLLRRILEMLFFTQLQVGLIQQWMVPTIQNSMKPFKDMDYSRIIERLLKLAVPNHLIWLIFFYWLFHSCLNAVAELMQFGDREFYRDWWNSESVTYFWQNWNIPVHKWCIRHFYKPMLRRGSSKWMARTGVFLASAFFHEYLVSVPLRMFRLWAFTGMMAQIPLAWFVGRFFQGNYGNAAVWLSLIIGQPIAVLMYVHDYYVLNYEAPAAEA
Assay: DGAT inhibitory activity: [14C]-triglyceride synthesis by DGAT1 high expression Sf9 microsome
Format: biochemical
Conditions: Table 1, 25 μM dioleoylglycerol, 25 μM [14C]-Oleoyl-CoA, 32° C., 15 min, read-out: DGAT inhibitory activity (according to IC50)
Description: The primer base sequence is shown below.
The PCR reaction was conducted using a KOD-plus kit (TOYOBO). The obtained PCR product was electrophoresed on agarose gel (1%), the DNA fragment amplified by PCR was recovered from the gel, and then digested with restriction enzymes EcoRI and SpeI. […] Furthermore, using BAC-TO-BAC Baculovirus Expression System (Invitrogen), recombinant baculovirus BAC-DGAT1 was prepared.
SF9 cells were sown at 1×10^6 cells/ml on Sf-900II SEM medium (1 L, Invitrogen) containing 10% fetal calf serum (Trace), 50 mg/L gentamicin (Invitrogen) and 0.1% Pluronic F-68 (Invitrogen), and shaking culture was performed using a 2 L volume Erlenmeyer at 27° C., 100 rpm. After culturing for 24 hr, recombinant baculovirus BAC-DGAT1 (6.7 mL) was added, and the mixture was further cultured for 3 days. The culture medium was centrifuged at 2,000 rpm for 5 min to give virus-infected cells. The infected cells were washed with a phosphate buffered saline (Invitrogen), centrifuged under the same conditions, and the cells were preserved at −80° C. The cryopreserved cells were thawed in ice, suspended in buffer A (50 mM Tris buffer (30 mL, pH 7.4) containing 20% glycerol, 0.15 M NaCl) supplemented with Complete Protease Inhibitor (Boehringer), and ruptured 3 times with a Polytron homogenizer (Kinematica) at 20,000 rpm for 30 sec. The Sf9 microsome fractions were obtained by a conventional method and cryopreserved at −80° C. as a DGAT1 high expression Sf9 microsome.
As a DGAT1 reaction buffer, a solution having a composition of 100 mM Tris-HCl (pH 7.5), 250 mM sucrose, 150 mM MgCl2, 0.01% bovine serum albumin (BSA) was used. […] A mixture of 300 μL of chloroform:methanol (=1:2) was added to the reaction mixture to quench the reaction. The reaction mixture was sufficiently mixed and saline (200 μL) was added to partition the mixture between a chloroform layer (lower layer) and an aqueous layer (upper layer). The chloroform layer (50 μL) was spotted on a thin layer chromatography silica gel plate (TLC plate, Merck) and developed with a solvent (n-hexane:diethyl ether:ethyl acetate:acetic acid=74:15:15:1). The developed TLC plate was dried, contacted with a BAS imaging plate (manufactured by FUJIFILM) and measured with BAS2500 (manufactured by FUJIFILM) 16 hr later to numerically show the amount of [^14C]-triglyceride (TG amount) produced during the reaction. The inhibitory rate was calculated by the following formula:
Inhibitory rate (%)=(1−(TG amount in the case with addition of test compound−blank TG amount)/(control TG amount−blank TG amount))×100
The count of the triglyceride produced in the solution reacted without addition of the test compound was used as a “control TG amount”, and the count of the triglyceride produced in the solution reacted without addition of the test compound and DGAT1 high expression Sf9 microsome was used as a “blank TG amount”.

Structure (SMILES) | IC50
CCOC(=O)CCc1ccc(NC(=O)CCC(=O)c2ccc(OCC)c(OCC)c2)cc1-c1ccccc1 [Example 9, ethyl 3-(5-{[4-(3,4-diethoxyphenyl)-4-oxobutanoyl]amino}biphenyl-2-yl)propanoate] | 50 to 500 nM
CCOc1ccc(C(=O)CCC(=O)Nc2cc(-c3ccccc3)c(C(=O)OC(C)(C)C)s2)cc1OCC [Example 56, tert-butyl 5-{[4-(3,4-diethoxyphenyl)-4-oxobutanoyl]amino}-3-phenylthiophene-2-carboxylate] | 50 to 500 nM
CCOc1ccc(C(=O)NCCNC(=O)c2cc(-c3ccccc3)n(-c3ccc(SC)cc3)c2C)cc1 [Example 65, N-{2-[(4-ethoxybenzoyl)amino]ethyl}-2-methyl-1-[4-(methylthio)phenyl]-5-phenyl-1H-pyrrole-3-carboxamide] | 10 to 50 nM
CCOc1ccc(C(=O)CCC(=O)Nc2cc(-c3ccccc3)c(Cc3ccc(Br)cc3)s2)cc1OCC [Example 47, N-[5-(4-bromobenzyl)-4-phenyl-2-thienyl]-4-(3,4-diethoxyphenyl)-4-oxobutanamide] | 10 to 50 nM
CCCc1ccc(C(=O)CCC(=O)Nc2nc(-c3ccccc3)c(Cc3ccccc3)s2)cc1 [Example 26, N-(5-benzyl-4-phenyl-1,3-thiazol-2-yl)-4-oxo-4-(4-propylphenyl)butanamide] | 50 to 500 nM
CCCc1cc(C(=O)CCC(=O)Nc2nc(-c3ccccc3)c(Cc3ccccc3)s2)ccc1OCC [Example 24, N-(5-benzyl-4-phenyl-1,3-thiazol-2-yl)-4-(4-ethoxy-3-propylphenyl)-4-oxobutanamide] | 10 to 50 nM
CCOC(=O)COc1ccc(C(=O)CCC(=O)Nc2nc(-c3ccccc3)c(Cc3ccccc3)s2)cc1 [Example 37] | 50 to 500 nM

Same assay, conditions: Table 2, 25 μM dioleoylglycerol, 25 μM [14C]-Oleoyl-CoA, 32° C., 15 min, read-out: DGAT inhibitory activity (according to IC50)

Structure (SMILES) | IC50
CCOc1ccc(C(=O)CCC(=O)Nc2cc(-c3ccc(C(N)=O)cc3)cc(-c3ccccc3)n2)cc1OCC [Example 128, 4-(2-{[4-(3,4-diethoxyphenyl)-4-oxobutanoyl]amino}-6-phenylpyridin-4-yl)benzamide] | 10 to 50 nM
CCOc1cc(C)c(C(=O)CCC(=O)Nc2cc(-c3ccccc3)c3cc(Cl)ccc3n2)cc1OCC [Example 73, N-(6-chloro-4-phenylquinolin-2-yl)-4-(4,5-diethoxy-2-methylphenyl)-4-oxobutanamide] | 50 to 500 nM
CCOc1ccc(C(=O)CCC(=O)Nc2cc(-c3cc(OC)c(OC)c(OC)c3)cc(-c3ccccc3)n2)cc1OCC [Example 150, 4-(3,4-diethoxyphenyl)-4-oxo-N-[6-phenyl-4-(3,4,5-trimethoxyphenyl)pyridin-2-yl]butanamide] | 500 to 10000 nM
CCOc1ccc(C(=O)CCC(=O)Nc2cc(-c3ccc(/C=C/C(=O)OC)cc3)cc(-c3ccccc3)n2)cc1OCC [Example 127, methyl (2E)-3-[4-(2-{[4-(3,4-diethoxyphenyl)-4-oxobutanoyl]amino}-6-phenylpyridin-4-yl)phenyl]acrylate] | 500 to 10000 nM
CCOc1ccc(C(=O)CCC(=O)Nc2cc(-c3ccccc3)c3ccc(/C=C/C(=O)OC(C)(C)C)cc3n2)cc1OCC [Example 82, tert-butyl (2E)-3-(2-{[4-(3,4-diethoxyphenyl)-4-oxobutanoyl]amino}-4-phenylquinoline-7-yl)acrylate] | 50 to 500 nM
CCOc1ccc(C(=O)CCC(=O)Nc2cc(-c3cccc(OC(F)(F)F)c3)cc(-c3ccccc3)n2)cc1OCC [Example 143, 4-(3,4-diethoxyphenyl)-4-oxo-N-{6-phenyl-4-[3-(trifluoromethoxy)phenyl]pyridin-2-yl}butanamide] | 50 to 500 nM
O=C(O)CCc1cccc(-c2cc(NC(=O)CCC(=O)c3ccc4c(c3)CCO4)nc(-c3ccccc3)c2)c1 [Example 172, 3-[3-(2-{[4-(2,3-dihydro-1-benzofuran-5-yl)-4-oxobutanoyl]amino}-6-phenylpyridin-4-yl)phenyl]propanoic acid] | 500 to 10000 nM
CCOc1ccc(C(=O)CCC(=O)Nc2cc(-c3cccc(OC)c3)cc(-c3ccccc3)n2)cc1OCC [Example 106, 4-(3,4-diethoxyphenyl)-N-[4-(3-methoxyphenyl)-6-phenylpyridin-2-yl]-4-oxobutanamide] | 50 to 500 nM
